Measurements published in patent US12545685B2 (Daiichi Sankyo Company, Limited, priority 2011, dated 2026).

What was measured:
[1] = human, microsomes, 0.5 h
Procedure: 100 μl of 100 mM phosphate buffer solution (pH 7.4) containing 3 μM test compound was added to 100 μl of reaction solution containing 100 mM phosphate buffer solution (pH 7.4), 30 mM glucose 6-phosphate, 10 mM MgCl2·6H2O, 3 units/ml glucose 6-phosphate 1-dehydrogenase, and 0.3 to 1.5 mg/ml human liver microsomes and the mixture was incubated at 37° C. for 20 minutes. Then 70 μl of 100 mM phosphate buffer solution (pH 7.4) containing 3 mM NADP+ was added and the mixture was further incubated at 37° C. for 30 minutes to conduct a microsomal metabolism test. The compound was quantified by the internal standard method using a quadrupole mass spectrometer connected to a high performance liquid chromatography apparatus. The metabolic stability (residual percentage of compound: MS %) was determined according to the following formula;
(peak area ratio: peak area of test compound divided by that of internal standard substance)

[2] = system: human lung cancer-derived cell line NCI-H460 having wild-type p53; assay: Cell growth inhibition assay (MTT); format: cell-based; conditions: 72 h, NCI-H460 cells, 3 days culture, values given as ranges, read-out: 50% growth inhibition concentration (GI50 value)
Procedure, shortened: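 NCI-H460 cells (wild-type p53) seeded at 500 cells/well in RPMI1640 with 10% FBS, then treated the next day and grown 3 days at 37 °C. MTT read-out at OD 540 nm (660 nm reference), taken at dosing and at day 3. GI50 derived from T/C (%) dose-response curves.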

[3] = biological target: T1, Mdm2/p53 binding (GST-Mdm2 / His-p53) (Homo sapiens, UniProt Q00987, L33E); assay: Mdm2/p53 binding assay (HTRF, His-p53 and GST-Mdm2); conditions: His-p53 (aa 1-132) and GST-Mdm2 (aa 25-108, L33E) 6.25 nM each; 25°C, 1 hour; values given as ranges
T1 construct: Mdm2 partial protein having Mdm2 amino acids at positions 25 to 108
T1 sequence (Q00987 25-108 L33E): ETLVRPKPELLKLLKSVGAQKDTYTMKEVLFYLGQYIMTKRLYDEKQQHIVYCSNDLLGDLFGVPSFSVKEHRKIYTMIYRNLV
Procedure, shortened: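 Binding was detected by HTRF (ex 320 nm, em 620/665 nm) after 1 h at 25 °C, using Eu-cryptate anti-GST and XL665 anti-His antibodies. The protein pair was GST-Mdm2 (residues 25–108, L33E) with His-p53 (residues 1–132), each 6.25 nM in the protein dilution. T/C used no-compound control and no-p53 background, and IC50 came from sigmoid fitting.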

| metabolic stability (residual percentage of compound: MS %) [1] | GI50 [2] [nM] | IC50 [3] [nM] | Compound |
| --- | --- | --- | --- |
| 70-100% | – | – | CC1(C)CCC2(CC1)N[C@@H](C(=O)N[C@H]1CC[C@H](c3nnco3)CC1)[C@H](c1cccc(Cl)c1F)[C@]21C(=O)Nc2cc(Cl)ncc21 (relative stereo) [Example 108, (3′R, 4′S, S′R)-6″-chloro-4′-(3-chloro-2-fluorophenyl)-4,4-dimethyl-N-[trans-4-(1,3,4-oxadiazol-2-yl)cyclohexyl]-2″-oxo-1″,2″-dihydrodispiro[cyclohexane-1,2′-pyrrolidine-3′,3″-pyrrolo[3,2-c]pyridine]-5′-carboxamide] |
| – | 1000 to 5000 | 1 to 50 | CC1(C)CCC2(CC1)N[C@@H](C(=O)N[C@@H]1CCC(C)(C(=O)O)OC1)[C@H](c1ccnc(Cl)c1F)[C@]21C(=O)Nc2cc(Cl)ccc21 (stereo partly drawn) [Example 186, (5R)-5-({[(3′R, 4′S,5′R)-6″-chloro-4′-(2-chloro-3-fluoropyridin-4-yl)-4,4-dimethyl-2″-oxo-1″,2″-dihydrodispiro[cyclohexane-1,2′-pyrrolidine-3′,3″-indole]-5′-yl]carbonyl}amino)-2-methyltetrahydro-2H-pyran-2-carboxylic acid] |
| – | 100 to 500 | 1 to 50 | CC1(C)CCC2(CC1)N[C@@H](C(=O)NC1(C)CC[C@@H](C(=O)O)OC1)[C@H](c1ccnc(Cl)c1F)[C@]21C(=O)Nc2cc(Cl)ccc21 (stereo partly drawn) [Example 188, (2S)-5-({[(3′R, 4′S,5′R)-6″-chloro-4′-(2-chloro-3-fluoropyridin-4-yl)-4,4-dimethyl-2″-oxo-1″,2″-dihydrodispiro[cyclohexane-1,2′-pyrrolidine-3′,3″-indole]-5′-yl]carbonyl}amino)-5-methyltetrahydro-2H-pyran-2-carboxylic acid] |
| – | 100 to 500 | 1 to 50 | CC1(C)CCC2(CC1)N[C@@H](C(=O)N[C@@H]1CC[C@@H](C(N)=O)OC1)[C@H](c1ccnc(Cl)c1F)[C@]21C(=O)Nc2cc(Cl)ncc21 [Example 191] |
